Experimental data reported in ChEMBL document CHEMBL5380875, “Discovery of a Potent and Oral Available Complex I OXPHOS Inhibitor That Abrogates Tumor Growth and Circumvents MEKi Resistance” (J Med Chem, 2023).
Calls of active or inactive are those of the source. No cut-off for these calls is given here.

Columns and labels:
[1] = Toxicity in mouse xenografted with human NCI-H460 cells with high-OXPHOS assessed as pathological changes in heart at 30 mg/kg, po bid administered for 18 days by H and E staining based analysis; assay type: organism-based; settings: in vivo, 432 h, time 18 day
A549 [2] = assay: Induction of apoptosis in human Trametinib-resistant A549 cells with high-OXPHOS harboring KRAS G12S mutant assessed as late apoptotic cells at 20 nM incubated for 72 hrs by Annexin V-FITC/propidium iodide staining based flow cytometry analysis (reference value: 4.27%); assay type: functional
NCI-H441 [3] = assay: Inhibition of colony formation in human NCI-H441 cells with high-OXPHOS harboring KRAS G12V mutant incubated for 10 to 14 days in presence of trametinib by crystal violet staining based analysis; assay type: functional, cell-based; settings: time 10-14 day
NCI-H460 [4] = assay: Inhibition of mitochondrial respiration in human NCI-H460 cells with high-OXPHOS assessed as reduction in basal oxygen consumption rate incubated for 12 hrs by seahorse XF96 flux analyzer; assay type: functional, cell-based; settings: dose 50-200 nM
[5] = Toxicity in mouse xenografted with human NCI-H460 cells with high-OXPHOS assessed as reduction in body weight at 30 mg/kg, po bid administered for 18 days in presence of trametinib; assay type: organism-based; settings: in vivo, 432 h, time 18 day
A549 [6] = assay: Inhibition of colony formation in human Trametinib-resistant A549 cells with high-OXPHOS harboring KRAS G12S mutant incubated for 10 to 14 days in presence of trametinib by crystal violet staining based analysis; assay type: functional, cell-based; settings: time 10-14 day
[7] = Cmax in ICR mouse at 10 mg/kg, po measured for 24 hrs by LC-MS/MS analysis; assay type: ADME, organism-based; design: time 24 hrs, dose 10 mg/kg, route po; settings: in vivo
A549 [8] = assay: Inhibition of mitochondrial respiration in human Trametinib-resistant A549 cell assessed as reduction in spare oxygen consumption rate capacity at 50 to 200 nM incubated for 12 hrs by seahorse XF96 flux analyzer; assay type: functional, cell-based; settings: dose 50-200 nM
Cytochrome P450 1A2 = target: T1, Cytochrome P450 1A2 (Homo sapiens, UniProt P05177); assay: Inhibition of CYP1A2 in human liver microsomes; assay type: ADME, Microsome
T1 sequence (P05177 whole entry): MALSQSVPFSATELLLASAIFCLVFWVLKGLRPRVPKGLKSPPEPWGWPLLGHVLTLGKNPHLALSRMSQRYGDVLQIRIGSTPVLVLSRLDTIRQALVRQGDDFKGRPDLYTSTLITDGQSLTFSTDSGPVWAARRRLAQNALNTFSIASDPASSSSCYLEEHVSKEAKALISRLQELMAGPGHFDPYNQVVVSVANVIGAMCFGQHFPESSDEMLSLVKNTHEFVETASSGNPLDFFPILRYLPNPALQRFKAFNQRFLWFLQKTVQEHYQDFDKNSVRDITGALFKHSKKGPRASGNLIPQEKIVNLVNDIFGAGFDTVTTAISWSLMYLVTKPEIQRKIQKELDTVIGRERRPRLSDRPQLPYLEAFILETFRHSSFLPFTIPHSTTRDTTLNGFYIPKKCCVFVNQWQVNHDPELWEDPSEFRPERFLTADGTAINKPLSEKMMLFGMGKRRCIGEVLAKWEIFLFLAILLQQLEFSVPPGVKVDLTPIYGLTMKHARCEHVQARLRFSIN

NCI-H441 [9] = assay: Inhibition of colony formation in human NCI-H441 cells with high-OXPHOS incubated for 7 days by crystal violet staining based analysis; assay type: functional, cell-based; settings: dose 250-1000 nM, time 7.0 day
NCI-H441 [10] = assay: Potentiation of trametinib-induced cytotoxicity against human NCI-H441 cells with high-OXPHOS harboring KRAS G12V mutant assessed as reduction in cell viability at 10 to 20 uM incubated for 72 hrs by CellTiter 96 cell proliferation assay; assay type: functional, cell-based; settings: dose 10-20 µM
Cytochrome P450 2C9 = Cytochrome P450 2C9 (Homo sapiens, UniProt P11712); assay: Inhibition of CYP2C9 in human liver microsomes; assay type: ADME, Microsome
[11] = Oral bioavailability in ICR mouse at 10 mg/kg measured for 24 hrs by LC-MS/MS analysis; assay type: ADME, organism-based; settings: in vivo
[12] = MRT (0 to 24 hrs) in ICR mouse at 10 mg/kg, po measured for 24 hrs by LC-MS/MS analysis; assay type: ADME, organism-based; settings: in vivo
[13] = AUC (0 to 24 hrs) in ICR mouse at 1 mg/kg, iv measured for 24 hrs by LC-MS/MS analysis; assay type: ADME, organism-based; design: time 24 hrs, dose 1 mg/kg, route iv; settings: in vivo
NCI-H358 = assay: Antiproliferative activity against human NCI-H358 cells with low-OXPHOS assessed as reduction in cell viability incubated for 5 days by CellTiter 96 cell proliferation assay; assay type: functional, cell-based; settings: NCI-H358, 120 h
NCI-H460 [14] = assay: Antitumor activity against human NCI-H460 cells with high-OXPHOS xenografted in mouse assessed as reduction in trametinib-induced oxidative phosphorylation at 30 mg/kg, po bid administered for 18 days; assay type: functional, organism-based; settings: time 18.0 day
[15] = Cytotoxicity against human MRC5 cells assessed as reduction in cell viability incubated for 5 days by CellTiter 96 cell proliferation assay; assay type: toxicity, cell-based
[16] = Half life in ICR mouse at 1 mg/kg, iv measured for 24 hrs by LC-MS/MS analysis; assay type: ADME, organism-based; settings: in vivo
NCI-H460 [17] = assay: Induction of apoptosis in human NCI-H460 cells with high-OXPHOS harboring KRAS Q61H mutant assessed as early apoptotic cells at 20 nM incubated for 72 hrs in presence of trametinib by Annexin V-FITC/propidium iodide staining based flow cytometry analysis (reference value: 1.95%); assay type: functional
A549 [18] = assay: Potentiation of trametinib-induced cytotoxicity against human Trametinib-resistant A549 cells with high-OXPHOS harboring KRAS G12S mutant assessed as reduction in cell viability at 10 to 20 uM incubated for 72 hrs by CellTiter 96 cell proliferation assay; assay type: functional, cell-based; settings: dose 10-20 µM
NCI-H460 [19] = assay: Potentiation of trametinib-induced cytotoxicity against human NCI-H460 cells with high-OXPHOS harboring KRAS Q61H mutant assessed as reduction in cell viability at 10 to 20 uM incubated for 72 hrs by CellTiter 96 cell proliferation assay; assay type: functional, cell-based; settings: dose 10-20 µM
A549 [20] = assay: Induction of apoptosis in human Trametinib-resistant A549 cells with high-OXPHOS harboring KRAS G12S mutant assessed as early apoptotic cells at 20 nM incubated for 72 hrs by Annexin V-FITC/propidium iodide staining based flow cytometry analysis (reference value: 4.31%); assay type: functional
NCI-H460 [21] = assay: Inhibition of colony formation in human NCI-H460 cells with high-OXPHOS incubated for 7 days by crystal violet staining based analysis; assay type: functional, cell-based; settings: dose 250-1000 nM, time 7.0 day
[22] = Toxicity in mouse xenografted with human NCI-H460 cells with high-OXPHOS assessed as pathological changes in lung at 30 mg/kg, po bid administered for 18 days by H and E staining based analysis; assay type: organism-based; settings: in vivo, 432 h, time 18 day
[23] = Toxicity in mouse xenografted with human NCI-H460 cells with high-OXPHOS assessed as pathological changes in liver at 30 mg/kg, po bid administered for 18 days by H and E staining based analysis; assay type: organism-based; settings: in vivo, 432 h, time 18 day
NCI-H460 [24] = assay: Induction of apoptosis in human NCI-H460 cells with high-OXPHOS harboring KRAS Q61H mutant assessed as late apoptotic cells at 20 nM incubated for 72 hrs in presence of trametinib by Annexin V-FITC/propidium iodide staining based flow cytometry analysis (reference value: 5.68%); assay type: functional
[25] = Toxicity in mouse xenografted with human NCI-H460 cells with high-OXPHOS assessed as reduction in serum AST level at 30 mg/kg, po bid administered for 18 days; assay type: organism-based; settings: in vivo, 432 h, time 18 day

Cytochrome P450 2C9, sequence (P11712 whole entry): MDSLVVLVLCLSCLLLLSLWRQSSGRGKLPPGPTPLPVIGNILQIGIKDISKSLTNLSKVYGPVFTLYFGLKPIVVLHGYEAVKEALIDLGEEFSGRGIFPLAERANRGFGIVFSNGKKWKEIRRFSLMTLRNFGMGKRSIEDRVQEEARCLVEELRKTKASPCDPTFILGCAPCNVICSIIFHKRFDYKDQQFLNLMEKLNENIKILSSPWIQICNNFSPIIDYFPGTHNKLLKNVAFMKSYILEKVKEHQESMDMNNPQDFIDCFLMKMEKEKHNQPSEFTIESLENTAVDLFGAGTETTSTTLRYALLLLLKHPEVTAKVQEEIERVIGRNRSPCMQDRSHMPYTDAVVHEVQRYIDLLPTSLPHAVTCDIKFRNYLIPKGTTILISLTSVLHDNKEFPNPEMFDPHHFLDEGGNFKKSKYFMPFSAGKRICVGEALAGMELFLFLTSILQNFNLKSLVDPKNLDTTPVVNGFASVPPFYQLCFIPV

For `Cc1c(C(=O)N2CCN(Cc3ccc(OCC(F)(F)F)cc3)CC2)nnn1Cc1ccc(C(=O)Nc2ccc(C(F)(F)F)cc2)nc1`, the Activity [1] was “Non-Toxic”, the Activity (A549 [2]) was 7.45% and the inhibition (NCI-H441 [3]) was “Active”. The inhibition (NCI-H460 [4]) was “Dose-Dependent Effect”, the Activity [5] was “Non-Toxic” and the inhibition (A549 [6]) was “Active”. The Cmax [7] was 618 ng/mL, the inhibition (A549 [8]) was “Active” and the IC50 (Cytochrome P450 1A2) was > 50 µM. For the same compound, the inhibition (NCI-H441 [9]) was “Dose-Dependent Effect”, the Activity (NCI-H441 [10]) was “Active” and the IC50 (Cytochrome P450 2C9) was 14.6 µM. The bioavailability [11] was 64.3%, the MRT last at 24 h [12] was 3 h and the AUC(0-t) at 24 h [13] was 337 ng·h/mL. For the same compound, the IC50 (NCI-H358) was > 1 µM, the Activity (NCI-H460 [14]) was “Active” and the IC50 at 5 days [15] was > 10 µM. The half-life [16] was 2.3 h, the Activity (NCI-H460 [17]) was 26.2% and the Activity (A549 [18]) was “Active”. For the same compound, the Activity (NCI-H460 [19]) was “Active”, the Activity (A549 [20]) was 8.57% and the inhibition (NCI-H460 [21]) was “Dose-Dependent Effect”. The Activity [22] was “Non-Toxic”, the Activity [23] was “Non-Toxic” and the Activity (NCI-H460 [24]) was 34.1%. For the same compound, the Activity [25] was “Non-Toxic”.
